Data: patent publication US20230203040A1, “CRYSTALLINE FORMS OF A SULFONAMIDE COMPOUND AND PROCESSES FOR PREPARING THE SAME” (CRYSTAL PHARMATECH CO., LTD., priority 2020, published 2023)
In brackets after ≈: the same amount, converted by molar mass.

Columns and labels:
Assay type in all cases: physicochemical
[1] = Solubility of crystalline forms in FaSSIF, FeSSIF and pure water (saturated solutions, HPLC); settings: 37° C.; for Solubility in water: pure water
Procedure: The sample contents in saturated solutions were determined by high performance liquid chromatography (HPLC).

[2] = Compressibility of crystalline forms (manual tableting, hardness and tensile strength); settings: for hardness (radial crushing force) / Tensile strength: tablet pressed at 10 KN; for hardness (radial crushing force): 24 hours in dryer; for Tensile strength: T=2H/πDL
Procedure: A manual tableting machine was used to perform the tableting. […] 10 KN pressure was applied to suppress into cylindrical tablets, which were placed in a dryer for 24 hours. After the complete elastic restoration, the tablets were tested with a tablet hardness meter for its radial crushing force (hardness, H). Diameter (D) and thickness (L) of the tablets were measured with a Vernier caliper, and the tensile strength of the powder under different hardness was calculated using the formula T=2H/πDL. Under a certain pressure, the higher the tensile strength was, the better the compressibility was.

[3] = Hygroscopicity by dynamic vapor sorption (DVS); settings: 25° C.; for Weight gain at 80% RH: 80% relative humidity; for Weight gain at 95% RH: 95% relative humidity
Procedure: The dynamic vapor sorption diagrams of the present invention were collected on Intrinsic-type and Intrinsic Plus-type dynamic vapor sorption instruments of SMS company. The process parameters of the dynamic vapor sorption test of the present invention were as follows: Temperature: 25° C. Protection gas and its flow rate: N2, 200 mL/minute dm/dt: 0.002%/minute Minimum dm/dt equilibration time: 10 minutes Maximum Equilibration Time: 180 minutes Relative humidity range: 0% RH-95% RH-0% RH Relative humidity gradient: 10% (0% RH-90% RH-0% RH), 5% (90% RH-95% RH and 95% RH-90% RH). Each about 10 mg of Crystalline Form of the present invention and Crystalline Form A of WO2020/008391A was weighed for dynamic vapor sorption (DVS) test, and then sampled to measure XRPD. The experimental results were shown in Table 21, and the dynamic vapor sorption diagrams of Crystalline Forms A and E were shown in FIGS. 22-23 respectively.

[4] = Intrinsic dissolution rate; settings: pH 6.8 Phosphate Buffer, 37° C., paddle 100 rpm, sheet 0.5 cm^2
Procedure: The intrinsic dissolution rate data of the present invention were collected on an Agilent 708DS-type dissolution apparatus of the Agilent company. The intrinsic dissolution test conditions were as follows.
An intact pressed sheet was transferred to the dissolution apparatus for testing the intrinsic dissolution rate, and the slope was calculated according to the measurement points between 10 and 30 minutes, expressed in mg/mL, and the intrinsic dissolution rate (IDR) was further calculated according to the slope, expressed in mg/min/cm^2. The dissolution rate of Crystalline Form E of the present invention was faster than that of Crystalline Form A of the prior art.

## CCCS(=O)(=O)N[C@H]1C[C@@H](N(C)c2ncnc3[nH]ccc23)C1 [Crystalline Form F]
[1]; equilibrated 1 hour
  Solubility in FaSSIF: 189 µg/mL (≈ 584 µM)
  Solubility in FeSSIF: 51.6 µg/mL (≈ 160 µM)
  Solubility in water: 179.6 µg/mL (≈ 555 µM)
[1]; equilibrated 2 hours
  Solubility in FaSSIF: 203.5 µg/mL (≈ 629 µM)
  Solubility in FeSSIF: 54.9 µg/mL (≈ 170 µM)
  Solubility in water: 189.2 µg/mL (≈ 585 µM)
[1]; equilibrated 4 hours
  Solubility in FaSSIF: 214.2 µg/mL (≈ 662 µM)
  Solubility in FeSSIF: 59.2 µg/mL (≈ 183 µM)
  Solubility in water: 203 µg/mL (≈ 628 µM)

## CCCS(=O)(=O)N[C@H]1C[C@@H](N(C)c2ncnc3[nH]ccc23)C1 [Crystalline Form A, reference compound]
[2]
  hardness (radial crushing force): 17.01 N
  Tensile strength: 1.805 MPa
[1]; equilibrated 1 hour
  Solubility in FaSSIF: 72.3 µg/mL (≈ 224 µM)
  Solubility in FeSSIF: 9.4 µg/mL (≈ 29.1 µM)
  Solubility in water: 64.3 µg/mL (≈ 199 µM)
[1]; equilibrated 2 hours
  Solubility in FaSSIF: 78 µg/mL (≈ 241 µM)
  Solubility in FeSSIF: 9.4 µg/mL (≈ 29.1 µM)
  Solubility in water: 74.7 µg/mL (≈ 231 µM)
[1]; equilibrated 4 hours
  Solubility in FaSSIF: 76.1 µg/mL (≈ 235 µM)
  Solubility in FeSSIF: 9.6 µg/mL (≈ 29.7 µM)
  Solubility in water: 72.3 µg/mL (≈ 224 µM)
[3]
  Weight gain at 80% RH: 0.09%
  Weight gain at 95% RH: 0.27%

## CCCS(=O)(=O)N[C@H]1C[C@@H](N(C)c2ncnc3[nH]ccc23)C1 [Crystalline Form E]
[2]; 10 KN
  tensile strength and compressibility compared with Crystalline Form A: higher tensile strength and better compressibility
[2]
  hardness (radial crushing force): 17.20 N
  Tensile strength: 2.607 MPa
[1]
  solubility in FaSSIF, FeSSIF and pure water compared with Crystalline Form A: higher
[1]; equilibrated 1 hour
  Solubility in FaSSIF: 153.8 µg/mL (≈ 476 µM)
  Solubility in FeSSIF: 38.4 µg/mL (≈ 119 µM)
  Solubility in water: 114.7 µg/mL (≈ 355 µM)
[1]; equilibrated 2 hours
  Solubility in FaSSIF: 164.5 µg/mL (≈ 509 µM)
  Solubility in FeSSIF: 39.2 µg/mL (≈ 121 µM)
  Solubility in water: 138.6 µg/mL (≈ 429 µM)
[1]; equilibrated 4 hours
  Solubility in FaSSIF: 169.4 µg/mL (≈ 524 µM)
  Solubility in FeSSIF: 44.1 µg/mL (≈ 136 µM)
  Solubility in water: 156.2 µg/mL (≈ 483 µM)
[4]
  dissolution rate (intrinsic) compared with Crystalline Form A: faster
[3]
  Weight gain at 80% RH: 0.11%
  Weight gain at 95% RH: 0.19%
